In PubChem BioAssay (NCI):
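1) Cells in 96-well plates. 2) Compound, 48 h, 5 concentrations. 3) Linear interpolation between surrounding doses. 4) Unreached endpoint = highest concentration. TGI: concentration producing complete growth inhibition.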 Where a SMILES comes first, the peptide text is derived from it. [ ]: non-standard residue; d: D form. The star is where a group is joined. Phe(4-NO2) = N[CH](Cc1ccc([N+](=O)[O-])cc1)C(=O)O; Boc = CC(C)(C)OC(=O)*; OBn = c1ccc(CO*)cc1

Key:
Test in all cases: growth of human tumour cells (NCI), 48 h
[1] = system: MDA-MB-231 breast
[2] = system: M14 melanoma
[3] = system: SR leukemia
[4] = system: HCT-15 colon
[5] = system: A498 renal
[6] = system: OVCAR-3 ovarian
[7] = system: UACC-62 melanoma
[8] = system: MDA-N
[9] = system: UACC-257 melanoma
[10] = system: SF-268 CNS

Row | Compound | TGI [1] [µM] | TGI [2] [µM] | TGI [3] [µM] | TGI [4] [µM] | TGI [5] [µM] | TGI [6] [µM] | TGI [7] [µM] | TGI [8] [µM] | TGI [9] [µM] | TGI [10] [µM]
1 | CCC(C)[C@H](NC(=O)N[C@H](C)c1ccccc1)C(=O)OC (stereo not given in full) | > 100 | > 100 | > 100 | > 100 | > 100 | > 100 | > 100 | > 100 | > 100 | 
2 | COc1cc(-c2nc3cc(F)ccc3s2)ccc1O | > 100 | > 100 | 75.7 | > 100 | 83.8 | 79.1 | > 100 | > 100 | 66.3 | > 100
3 | COC(=O)CCC(NC(=O)OC(C)(C)C)C(=O)NC(Cc1ccc([N+](=O)[O-])cc1)C(=O)NCC(=O)OCc1ccccc1 (stereo not given) (Boc-Glu(OMe)-[Phe(4-NO2)]-Gly-OBn; configuration not given here) | > 91.6 | > 100 | > 100 | > 100 | > 100 | > 100 | > 31.6 | > 100 | > 100 | > 100
4 | Cc1cc2c(cc1Cl)Sc1nnc(Nc3ccccc3)n1S2(=O)=O | 49.9 | 60.1 | 13.6 | 28.9 | 33.8 | 7.1 |  | 31.2 | 61.2 | 11
5 | Cc1ccc(S(=O)(=O)N/C(=C\C=C\c2ccccc2)C(=O)C(C)(C)C)cc1 | > 100 | > 100 | > 100 | > 100 | > 100 | > 100 |  | > 100 | > 100 | > 100
6 | Cn1ccnc1Sc1ccc(/C=N/NC(=O)c2ccccc2O)cc1[N+](=O)[O-] | > 100 | > 100 | > 100 | > 100 | > 100 | > 100 | > 100 | > 100 | > 100 | > 100
7 | OC(C1CCC=NN1C(O)(C(F)(F)F)C(F)(F)F)(C(F)(F)F)C(F)(F)F (stereo not given) | > 10 | > 10 | > 10 | > 10 | > 10 | > 10 | > 10 | > 10 | > 10 | > 10
8 | CC(=O)O/C=C\OC1CCCC1(c1ccccc1)c1ccccc1 (stereo not given) | 5.51 | 5.75 | 4.93 | 4.7 | 32.9 | 7.59 | 17.5 | 5 | 13.6 | 10.3
9 | COc1cc2c3cc1Oc1c(O)c(OC)cc4c1[C@H](Cc1ccc(cc1)Oc1cc(ccc1O)C[C@H]3N(C)CC2)N(C)CC4 | 22.8 | 5.62 | 9.15 | 59.5 | 31.5 | 28.5 | 33.4 | 24.7 | 33.9 | 47.3
10 | O=c1[nH]nc(Cc2ccccc2)n1/N=C/c1c[nH]c2ccccc12 | > 100 | > 100 | > 100 | > 100 | > 100 | > 100 | > 100 | > 100 | > 100 | 88.1
11 | Oc1ccc(Cl)cc1C1=N/C(=N\CN2CCN(C/N=C3/N=C(c4cc(Cl)ccc4O)CC(c4ccccc4)N3)CC2)NC(c2ccccc2)C1 (stereo not given) | > 100 | > 100 | > 100 | > 100 | > 100 | 55.4 | > 100 | > 100 | > 100 | > 100
12 | COc1ccc2c(c1)OC(c1cccnc1)C(c1ccccc1)C2=O (stereo not given) | > 100 | > 100 | > 100 | > 100 | > 100 | > 100 | > 100 | > 100 | > 100 | > 100
13 | CC(=O)Oc1ccc(/C=C/C(=O)O[C@@H](C)[C@H](C)OC(=O)/C=C/c2ccc(OC(C)=O)c(OC(C)=O)c2)cc1OC(C)=O | > 100 | 58.4 | > 100 | 33.1 | 93.9 | 51.6 | 33.8 | 89.4 | 65.1 | > 100
14 | Brc1ccc(N=NN2CCCCC2)cc1 | > 100 | > 100 | 41.7 | > 100 | > 100 | > 100 | > 100 | > 100 | > 100 | > 100
15 | Oc1ccc(/C=C\c2nnc(/C=C\c3ccc(O)c(O)c3)s2)cc1O | 56.2 | 26 | 5.22 | 16.9 | 26.2 | 16.3 | 14 | 20.8 | 35.7 | 14.8
16 | c1ccc2c(-c3cnc(-c4c[nH]c5ccccc45)cn3)c[nH]c2c1 | > 100 | > 100 | > 100 | > 100 | > 100 | > 100 | > 100 | 50.3 | > 100 | > 100
17 | NCCC(N)C(=O)O (stereo not given) | > 100 | > 100 | > 100 | > 100 | > 100 | > 100 | > 100 | > 100 | > 100 | > 100
18 | CN1CC2=C(OC(N)=C(C#N)C2c2cccs2)/C(=C/c2cccs2)C1 (stereo not given) | > 100 | > 55.9 | > 100 | > 100 | > 100 | 56.5 | > 100 | > 47.3 | > 100 | > 31.1

Row | Compound | TGI [1] [µM] | TGI [2] [µM] | TGI [3] [µM] | TGI [4] [µM] | TGI [5] [µM] | TGI [6] [µM] | TGI [7] [µM] | TGI [8] [µM] | TGI [9] [µM] | TGI [10] [µM]
19 | CC(C)(CN)CN | > 100 | > 100 | > 100 | > 100 | > 100 | > 100 | > 100 | > 100 | > 100 | > 100
20 | COc1ccc2nc3cc(Cl)ccc3c(NCCCCCC(=O)NC(COc3cnc4c(ccc5cccnc54)c3)COc3cnc4c(ccc5cccnc54)c3)c2c1 | 44 | > 100 | 11.7 | > 100 | 62.8 | 34.6 | > 100 | > 100 | 31.4 | 40.2
21 | N=C(N)SCCON1C(=O)c2ccccc2C1=O | > 100 | > 100 | > 100 | > 100 | > 100 | > 100 | > 100 | > 100 | > 100 | > 100
22 | CCCCOC(=O)C(=O)C(CCC(=O)c1ccc(C)cc1)C(=O)C=C(C)C (stereo not given) | > 100 | > 100 | > 100 | > 100 | > 100 | > 100 | > 100 | > 100 | > 100 | > 100
23 | CC(C)(CO)CNc1cc(=O)[nH]c(N)n1 | > 100 | > 100 | > 100 | > 100 | > 100 | > 100 | > 100 | > 100 | > 100 | > 100
24 | O=[N+]([O-])c1cccc(-c2csc(N=Nc3c(O)[nH]c4ccccc34)n2)c1 | 39.5 | > 100 | 96.9 | 54.4 | 80.1 | > 100 | > 100 | > 100 | 41.3 | 38.4
25 | COc1ccc(N(C(=O)Nc2ccc(Cl)c(Cl)c2)c2ccccc2)cc1 | > 10 | > 10 | > 10 | > 10 | > 10 | > 10 | > 10 | > 10 | > 10 | > 10
26 | CCN(CC)Cc1nc2sc3c(c2c(=O)n1-c1ccccc1)CCCC3 | 30.4 | 30.2 | > 100 | 51.7 | 45.2 | 34.8 | 30.4 | 58 | 47.5 | 50.3
27 | O=C(Nc1ccccc1)O/N=C(/CBr)c1ccccc1 | 29.3 | 28.4 | 44.2 | 22.2 | 64.1 | 37.9 | 26.7 | 24.2 | 35.5 | 47.7
28 | COc1cc2c(cc1C[N+](C)(C)CSc1ccccc1)-c1ccccc1CC2 | 10 | 7.95 | 7.55 | 30.2 | 37.9 | 13 | 7.79 | 5.48 | 12.3 | 18.5
29 | CSc1c(C(=O)Nc2ccccc2)c(N)nn1-c1ccccc1 | > 100 | > 100 | > 100 | > 100 | > 100 | > 100 | > 100 | > 100 | > 100 | > 100
30 | CC(=O)NNc1nc(C)c(C(/C=C/c2ccc3c(c2)OCO3)=N/Nc2ccccc2)s1 | > 100 | > 100 | > 100 | > 100 | > 100 | > 100 | > 100 | > 100 | > 100 | > 100
31 | COC(=O)CCCc1ccc2c(c1)CC1(C2)Cc2cc3c(cc2C1)CCCC3 | > 100 | 68.2 | 0.713 | 89.3 | > 100 | > 100 | 67 | 42.3 | > 100 | 
32 | c1ccc(CNc2c3c(nc4ccccc24)CCC3)cc1 | 27.1 | 27.2 | 38.9 | 68.4 | 31.7 | 30.8 | 28 | 30.4 | 29.3 | 46.6
33 | Cc1c(C)c(C)c(-n2[nH]c(=O)n(C)c2=O)c(C)c1C | > 100 | > 100 | > 100 | > 100 | > 100 | > 100 | > 100 | > 100 | > 100 | > 100
34 | CCOC(C[Se]CC(OCC)OCC)OCC | > 100 | > 100 | > 100 | > 100 | > 100 | > 100 | > 100 | > 100 | > 100 | 
35 | CCCC/C=C1\CCC(CN2CCCCC2)C1=O (stereo not given) | > 100 | 24.4 | > 24.7 | 20.6 | 31.6 | 46 | 24.8 | > 100 | 42 | 51.6
